# Laboratory results reported in patent publication US7759345B2, “Antitumoral derivatives of ET-743” (priority 2001, dated 2010).
# Read-outs that look alike come from different tables or passages of the source.
# Columns and labels:
# A-549 = experiment: Inhibition of cells growth by colorimetric assay (SRB), A-549; type: cell-based; conditions: for GI50 / LC50 (concentration for 50% cell killing): Homo sapiens, A549, 48 h; for GI50: read-out: A-549 GI50
# Procedure, shortened: (§1)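 Cells in RPMI 1640 with 10% FBS were seeded at 5×10^3 per well, allowed 18 h to attach, then exposed to compound (10 to 10^−8 μg/ml, in DMSO/EtOH/PBS 0.5:0.5:99) for 48 h. After TCA fixation and SRB staining, bound dye was solubilized in Tris and OD read at 490 nm; GI, TGI and LC derived from triplicates.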
# SK-MEL-28 = experiment: Inhibition of cells growth by colorimetric assay (SRB), SK-MEL-28; type: cell-based; conditions: for GI50 / CC50: Homo sapiens, SK-MEL-28, 48 h; for GI50: read-out: MEL-28 GI50
# Procedure, shortened: as §1
# HT-29 = experiment: Inhibition of cells growth by colorimetric assay (SRB), HT-29; type: cell-based; conditions: for GI50 / LC50 (concentration for 50% cell killing): Homo sapiens, HT-29, 48 h; for GI50: read-out: HT-29 GI50
# Procedure, shortened: as §1
# SW620 = experiment: Inhibition of cells growth by colorimetric assay (SRB), SW620; type: cell-based; conditions: for LC50 / GI50: Homo sapiens; for LC50: SW-620, 48 h, read-out: SW-620 LC50; for GI50 / SW-620 TGI: 48 hours exposure; for GI50: read-out: SW-620 GI50
# Procedure: (§2) 2°.—Inhibition of Cells Growth by Colorimetric Assay.
# (§3) A colorimetric type of assay, using sulforhodamine B (SRB) reaction has been adapted for a quantitative measurement of cell growth and viability [following the technique described by Philip Skehan, et al. (1990), New colorimetric cytotoxicity assay for anticancer drug screening, J. Natl. Cancer Inst., 82:1107-1112]
# (§4) This form of the assay employs 96 well cell culture microplates of 9 mm diameter (Faircloth, 1988; Mosmann, 1983). Most of the cell lines are obtained from American Type Culture Collection (ATCC) derived from different human cancer types.
# (§5) Cells are maintained in RPMI 1640 10% FBS, supplemented with 0.1 g/l penicillin and 0.1 g/l streptomycin sulfate and then incubated at 37° C., 5% CO2 and 98% humidity. For the experiments, cells were harvested from subconfluent cultures using trypsin and resuspended in fresh medium before plating.
# (§6) Cells are seeded in 96 well microtiter plates, at 5×10^3 cells per well in aliquots of 195 μl medium, and they are allowed to attach to the plate surface by growing in drug free medium for 18 hours. Afterward, samples are added in aliquots of 5 μl in a ranging from 10 to 10^−8 μg/ml, dissolved in DMSO/EtOH/PBS (0.5:0.5:99). After 48 hours exposure, the antitumor effect are measured by the SRB methodology: cells are fixed by adding 50 μl of cold 50% (wt/vol) trichloroacetic acid (TCA) and incubating for 60 minutes at 4° C. Plates are washed with deionized water and dried. One hundred μl of SRB solution (0.4% wt/vol in 1% acetic acid) is added to each microtiter well and incubated for 10 minutes at room temperature. Unbound SRB is removed by washing with 1% acetic acid. Plates are air dried and bound stain is solubilized with Tris buffer. Optical densities are read on a automated spectrophotometric plate reader at a single wavelength of 490 nm.
# (§7) The values for mean+/−SD of data from triplicate wells are calculated. Some parameters for cellular responses can be calculated: GI=growth inhibition, TGI=total growth inhibition (cytostatic effect) and LC=cell killing (cytotoxic effect).
# (§8) Obtained results may predict the usefulness of a certain drug as a potential cancer treatment. For this technique, compounds which show GI50 values smaller than 10 μg/ml are selected to continue with further studies. GI50's data allow to predict that not only could a drug be cystostatic, but also it could have a potential in terms of tumor reduction.
# DU-145 = experiment: Inhibition of cells growth by colorimetric assay (SRB), DU-145; type: cell-based; conditions: for GI50 / CC50: Homo sapiens, DU-145, 48 h; for GI50: read-out: DU-145 GI50
# Procedure, shortened: as §1
# MCF-7 = experiment: Inhibition of cells growth by colorimetric assay (SRB), MCF-7; type: cell-based; conditions: for CC50 / GI50: Homo sapiens; for CC50: MCF7, 48 h, read-out: MCF LC50; for GI50: MCF7, read-out: MCF GI50; for GI50 / MCF TGI: 48 hours exposure
# Procedure: as §2, §3, §4, §5, §6, §7, §8
# MDA-MB-231 = experiment: Inhibition of cells growth by colorimetric assay (SRB), MDA-MB-231; type: cell-based; conditions: for CC50 / GI50: Homo sapiens; for CC50: MDA-MB-231, 48 h, read-out: MB-231 LC50; for GI50: MDA-MB-231, read-out: MB-231 GI50; for GI50 / MB-231 TGI: 48 hours exposure
# Procedure: as §2, §3, §4, §5, §6, §7, §8
# A-498 = experiment: Inhibition of cells growth by colorimetric assay (SRB), A-498; type: cell-based; conditions: for A-498 TGI / GI50: 48 hours exposure; for LC50 / GI50: Homo sapiens; for LC50: A498, 48 h, read-out: A-498 LC50; for GI50: A498, read-out: A-498 GI50
# Procedure: as §2, §3, §4, §5, §6, §7, §8
# Text for Heart: (§9) Toxicity was asssessed by the methods reported in Toxicology in Vitro, 15 (2001) 571-577, J. Luber Narod et al.: “Evaluation of the use of in vitro methodolodies as tools for screening new compounds for potential in vivo toxicity”.
# Text for Kidney: as §9
# Text for Liver: as §9
# Text for Myelo: as §9
# Text for Skeletal: as §9
structure (smiles),measurement,setting,value
COc1cc2c(cc1O)CCN[C@]21CS[C@@H]2c3c(OC(C)=O)c(C)c4c(c3[C@H](COC1=O)N1C2[C@H]2c3c(cc(C)c(OC)c3OC(=O)OC(C)(C)C)C[C@@H]([C@@H]1O)N2C)OCO4 (some centres unmarked) [Compound 97],A-549 TGI,"A-549; A-549, SRB, 48 hours exposure",9.28E-10
same,GI50,"A-549; A-549, SRB, 48 hours exposure",0.348 nM
same,LC50 (concentration for 50% cell killing),"A-549; read-out: A-549 LC50, A-549, SRB, 48 hours exposure",3.48 nM
same,GI50,"SK-MEL-28; MEL-28, SRB, 48 hours exposure",0.348 nM
same,CC50,"SK-MEL-28; read-out: MEL-28 LC50, MEL-28, SRB, 48 hours exposure",3.48 nM
same,MEL-28 TGI,"SK-MEL-28; MEL-28, SRB, 48 hours exposure",9.28E-10
same,HT-29 TGI,"HT-29; HT-29, SRB, 48 hours exposure",2.32E-09
same,GI50,HT-29,0.928 nM
same,LC50 (concentration for 50% cell killing),"HT-29; read-out: HT-29 LC50, HT-29, SRB, 48 hours exposure",9.28 nM
same,LC50,SW620,9.28 nM
same,GI50,"SW620; SW-620, SRB",0.58 nM
same,SW-620 TGI,"SW620; SW-620, SRB",2.32E-09
same,DU-145 TGI,"DU-145; DU-145, SRB, 48 hours exposure",3.48E-10
same,GI50,"DU-145; DU-145, SRB, 48 hours exposure",0.232 nM
same,CC50,"DU-145; read-out: DU-145 LC50, DU-145, SRB, 48 hours exposure",0.928 nM
same,CC50,MCF-7,11.6 nM
same,GI50,"MCF-7; MCF, SRB",1.16 nM
same,MCF TGI,"MCF-7; MCF, SRB",3.48E-09
same,CC50,MDA-MB-231,34.8 nM
same,GI50,"MDA-MB-231; MB-231, SRB",0.348 nM
same,MB-231 TGI,"MDA-MB-231; MB-231, SRB",6.96E-10
same,A-498 TGI,"A-498; A-498, SRB",2.32E-09
same,LC50,A-498,9.28 nM
same,GI50,"A-498; A-498, SRB",0.58 nM
same,Toxicity Data Liver,Liver,1.57E-08
same,Toxicity Data Heart,Heart,9.63E-08
same,Toxicity Data Myelo,Myelo,1.77E-08
same,Toxicity Data Skeletal,Skeletal,4.62E-09
same,Toxicity Data Kidney,Kidney,1.43E-08
COc1cc2c(cc1O)CCN(C)[C@]21CS[C@@H]2c3c(OC(C)=O)c(C)c4c(c3[C@H](COC1=O)N1C2[C@@H]2N[C@@H](Cc3cc(C)c(OC)c(O)c32)[C@@H]1C#N)OCO4 (some centres unmarked) [Compound 209],GI50,"A-549; SRB assay, 48 hours exposure",0.0909 nM
same,LC50 (concentration for 50% cell killing),"A-549; read-out: A-549 LC50, SRB assay, 48 hours exposure",1.17 nM
same,A-549 TGI,"A-549; SRB assay, 48 hours exposure",3.90E-10
same,GI50,"SK-MEL-28; SRB assay, 48 hours exposure",0.0649 nM
same,CC50,"SK-MEL-28; read-out: MEL-28 LC50, SRB assay, 48 hours exposure",1.3 nM
same,MEL-28 TGI,"SK-MEL-28; SRB assay, 48 hours exposure",2.60E-10
same,GI50,"HT-29; SRB assay, 48 hours exposure",0.0779 nM
same,LC50 (concentration for 50% cell killing),"HT-29; read-out: HT-29 LC50, SRB assay, 48 hours exposure",1.17 nM
same,HT-29 TGI,"HT-29; SRB assay, 48 hours exposure",3.90E-10
same,LC50,SW620,1.3 nM
same,GI50,"SW620; SW-620, SRB assay",0.0779 nM
same,SW-620 TGI,SW620; SRB assay,3.90E-10
same,GI50,"DU-145; SRB assay, 48 hours exposure",0.013 nM
same,CC50,"DU-145; read-out: DU-145 LC50, SRB assay, 48 hours exposure",0.13 nM
same,DU-145 TGI,"DU-145; SRB assay, 48 hours exposure",3.90E-11
same,CC50,MCF-7,5.19 nM
same,GI50,MCF-7; SRB assay,0.26 nM
same,MCF TGI,MCF-7; SRB assay,7.79E-10
same,CC50,MDA-MB-231,1.3 nM
same,GI50,MDA-MB-231; SRB assay,0.013 nM
same,MB-231 TGI,MDA-MB-231; SRB assay,2.60E-10
same,LC50,A-498,1.3 nM
same,GI50,A-498; SRB assay,0.13 nM
same,A-498 TGI,A-498; SRB assay,3.90E-10
